Legend:
Assay in all cases: relative viability (nuclei count vs DMSO), 5 days (fraction); higher = more cells survive
Adavosertib + Tozasertib = compound: C=CCn1c(=O)c2cnc(Nc3ccc(N4CCN(C)CC4)cc3)nc2n1-c1cccc(C(C)(C)O)n1 [Adavosertib] + Cc1cc(Nc2cc(N3CCN(C)CC3)nc(Sc3ccc(NC(=O)C4CC4)cc3)n2)n[nH]1 [Tozasertib] (partner 0.1 µM)
Procedure, shortened: (§1)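 Lung cancer cell lines, seeded in 1536-well plates, were treated the following day by pin tool with a single drug or with five library-drug doses (not always all listed) in √10 steps on top of a fixed anchor-drug dose. Cells were fixed and nuclei stained in one step after 5 days, and nuclei were counted. Relative viability is the nuclei count for treated wells divided by that for vehicle wells, reported as medians of duplicate plates.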

Nelarabine + Navitoclax = compound: COc1nc(N)nc2c1ncn2[C@@H]1O[C@H](CO)[C@@H](O)[C@@H]1O [Nelarabine] + CC1(C)CCC(c2ccc(Cl)cc2)=C(CN2CCN(c3ccc(C(=O)NS(=O)(=O)c4ccc(N[C@H](CCN5CCOCC5)CSc5ccccc5)c(S(=O)(=O)C(F)(F)F)c4)cc3)CC2)C1 [Navitoclax] (partner 0.5 µM)
Procedure, shortened: as §1

Nelarabine + Crizotinib = compound: COc1nc(N)nc2c1ncn2[C@@H]1O[C@H](CO)[C@@H](O)[C@@H]1O [Nelarabine] + C[C@@H](Oc1cc(-c2cnn(C3CCNCC3)c2)cnc1N)c1c(Cl)ccc(F)c1Cl [Crizotinib] (partner 1 µM)
Procedure, shortened: as §1

Nelarabine + Pemetrexed = compound: COc1nc(N)nc2c1ncn2[C@@H]1O[C@H](CO)[C@@H](O)[C@@H]1O [Nelarabine] + Nc1nc2[nH]cc(CCc3ccc(C(=O)N[C@@H](CCC(=O)O)C(=O)O)cc3)c2c(=O)[nH]1 [Pemetrexed] (partner 0.2 µM)
Procedure, shortened: as §1

| Cell Line | relative viability (Adavosertib + Tozasertib; first compound 0.01 µM) | relative viability (Adavosertib + Tozasertib; first compound 0.03162 µM) | relative viability (Adavosertib + Tozasertib; first compound 0.1 µM) | relative viability (Adavosertib + Tozasertib; first compound 0.3162 µM) | relative viability (Nelarabine + Navitoclax; first compound 0.01 µM) | relative viability (Nelarabine + Navitoclax; first compound 0.03162 µM) | relative viability (Nelarabine + Navitoclax; first compound 0.1 µM) | relative viability (Nelarabine + Navitoclax; first compound 0.3162 µM) | relative viability (Nelarabine + Navitoclax; first compound 1 µM) | relative viability (Nelarabine + Crizotinib; first compound 0.01 µM) | relative viability (Nelarabine + Crizotinib; first compound 0.03162 µM) | relative viability (Nelarabine + Crizotinib; first compound 0.1 µM) | relative viability (Nelarabine + Crizotinib; first compound 0.3162 µM) | relative viability (Nelarabine + Crizotinib; first compound 1 µM) | relative viability (Nelarabine + Pemetrexed; first compound 0.01 µM) | relative viability (Nelarabine + Pemetrexed; first compound 0.03162 µM) | relative viability (Nelarabine + Pemetrexed; first compound 0.1 µM) | relative viability (Nelarabine + Pemetrexed; first compound 0.3162 µM) | relative viability (Nelarabine + Pemetrexed; first compound 1 µM) |
| --- | --- | --- | --- | --- | --- | --- | --- | --- | --- | --- | --- | --- | --- | --- | --- | --- | --- | --- | --- |
| PC-3 [JPC-3] | 0.891 | 0.874 | 0.925 | 0.897 | 1.04 | 0.732 | 0.748 | 0.913 | 0.926 | 1.15 | 1.02 | 1.01 | 0.977 | 0.968 | 0.9 | 0.866 | 1.36 | 1.17 | 0.751 |
| A-427 | 0.175 | 0.186 | 0.219 | 0.164 | 1.05 | 1.02 | 0.916 | 0.897 | 0.912 | 1.02 | 0.636 | 0.872 | 0.957 | 0.893 | 1.04 | 1.05 | 1.11 | 0.984 | 0.838 |
| NCI-H1651 | 0.7 | 0.702 | 0.832 | 0.668 | 1.48 | 1.1 | 1.1 | 1.04 | 1.08 | 0.959 | 0.818 | 0.902 | 0.891 | 0.899 | 0.406 | 0.548 | 0.63 | 0.643 | 0.564 |
| SK-LU-1 | 0.371 | 0.321 | 0.302 | 0.174 | 0.773 | 0.485 | 0.84 | 0.79 | 0.79 | 1.27 | 0.518 | 1.04 | 1.01 | 0.994 | 1.19 | 0.796 | 1.06 | 0.995 | 1.04 |
| BEN | 0.598 | 0.474 | 0.494 | 0.629 | 0.0794 | 0.0676 | 0.187 | 0.0641 | 0.0472 | 1.37 | 0.869 | 0.896 | 0.88 | 0.929 | 0.788 | 0.822 | 0.765 | 0.837 | 0.752 |
| NCI-H1915 | 0.433 | 0.441 | 0.509 | 0.524 | 0.799 | 0.687 | 0.767 | 0.805 | 0.796 | 1.23 | 0.941 | 0.953 | 0.916 | 0.881 | 0.676 | 0.539 | 0.561 | 0.658 | 0.699 |
| COR-L23 | 0.24 | 0.236 | 0.23 | 0.162 | 1.4 | 1.14 | 1.09 | 1.04 | 0.977 | 0.692 | 0.706 | 0.574 | 0.617 | 0.628 | 0.205 | 0.194 | 0.193 | 0.184 | 0.203 |
| NCI-H1975 | 0.842 | 0.794 | 0.835 | 0.525 | 1.27 | 0.948 | 1.26 | 1.39 | 1.14 | 1.15 | 0.91 | 1.11 | 1.08 | 1.1 | 0.376 | 0.278 | 0.312 | 0.305 | 0.303 |

From the supplement of paper PMC10307832
